Reference: US20160122758A1, “AGENTS FOR DOWNREGULATION OF THE ACTIVITY AND/OR AMOUNT OF BCL-XL AND/OR BCL-W” (YEDA RESEARCH AND DEVELOPMENT CO. LTD., priority 2013, published 2016)
Residues, ends and D or L forms follow the SMILES beside them. *: point of attachment. Cbz = O=C(OCc1ccccc1)*; CH2F = FC*

Assays:
[1] = tested on: senescent IMR-90 or MEF cells; assay: Viability assay, ABT-199 alone on senescent IMR-90 or MEF cells; format: cell-based, human, mouse; conditions: ABT-199 for 24 hours
Procedure: (§1) Human primary fibroblasts (IMR-90, BJ) were obtained from ATCC MEFs were prepared from day 13.5 embryos. All cultures were maintained in DMEM supplemented with 10% fetal bovine serum (Hyclone). Senescence was induced by treatment with Etoposide ([…], Sigma), or the introduction of oncogenic H-ras^v12 using infections into IMR-90 cells (as described by Narita, 2003).
(§2) Growing and senescent cells were plated in 12-well plates at 7.5×10^4 cells per well. The following day, cells were treated with DMSO control, ABT-737 (Selleckchem, USA) or ABT-199 (ChemieTek, USA) and cell viability was analyzed 24 hours thereafter. 300 μl of PrestoBlue Reagent (Invitrogen, USA) were added to each well, and plates were incubated for 20 minutes at 37 C. 100 μl samples were taken in duplicates to a 96 well plate and read at an OD of 540 nm using a Tecan plate reader (Infinite® M200). A three-hour pre incubation with 100 μM z-VAD-fmk (Santa Cruz, USA) was performed prior to the addition of ABT-737 where indicated.

[2] = tested on: Etoposide treated senescent IMR-90 cells; assay: Viability assay after siRNA transfection of Etoposide treated senescent IMR-90 cells; format: cell-based, human; conditions: 10 μM ABT-199 for 24 hours, three days post siRNA transfection
Procedure: as §1, §2
ON-TARGETplus SMARTpool small-interfering RNAs targeting p21, Bcl-2, Bcl-w, Bcl-xL and the nontargeting pool siRNAs (control) were transfected into cells with the Dharmafect 1 reagent (all from Dharmacon, Lafayette, Colo., USA). siRNAs were washed away 24 hours post transfection and viability was analyzed four days thereafter as described above.

senescent IMR-90 cells = assay: Viability assay, ABT-737 with or without z-VAD-fmk on IMR-90 cells; format: cell-based, human
Procedure: as §1, §2
Members of the Bcl-2 family negatively regulate apoptotic pathway (Azmi et al., 2011; Cory et al., 2003; Reed, 2008). To determine whether ABT-737 kills senescent cells via the apoptotic pathway, DNA damage induced senescent IMR-90 cells, oncogenic H-Ras^v12 induced senescent cells and control growing cells were treated with ABT-737 alone or in combination with pan-caspase inhibitor z-VAD-fmk. […]

cleaved caspase-3 = assay: Immunoblot for cleaved caspase-3 in IMR-90 cells treated with ABT-737 with or without z-VAD-fmk; format: cell-based, human
Procedure: Cells were lysed in RIPA buffer. Equal amounts of protein were separated on 12% SDS-polyacrylamide gels and transferred to PVDF membranes. Detection was performed using the following antibodies: anti-Rb (9313), anti-cleaved parp (9541), anti-cleaved caspase-3 (9661), anti-phospho-p53 (9284), anti-mouse-p53 (2524), anti-phospho-NF-κB (3033), anti-Bcl-2 (2870), anti-Bcl-w (2724) and anti-Bcl-xL (2764) were purchased from Cell Signaling Technology. Anti-human p53 (DO1 and PAb1801). Anti-p16 (sc-759), anti-mouse-p21 (sc-397), anti-NFκB p65 (sc-372) and anti-α-Tubulin (sc-9104) were obtained from Santa Cruz Biotechnology. Anti-human-p21 (556431) was obtained from BD Pharmingen, Anti-Mcl-1 (1239-1) was obtained from Epitomics.
as §2, with “indicated. […]” for “indicated.”

[3] = tested on: senescent human (IMR-90) and mouse (MEF) fibroblasts; assay: Viability assay, ABT-737 on senescent and control IMR-90 and MEF fibroblasts; format: cell-based; conditions: ABT-737 for 24 hours
Procedure: as §1, §2
To further test the hypothesis that an increase in the levels of anti-apoptotic proteins Bcl-w and Bcl-xL could account for the apoptotic resistance of senescent cells by an independent approach, cells were treated with the pharmacological inhibitor of the Bcl-2 family of proteins, ABT-737 (Chauhan et al., 2007). […]

[4] = tested on: Etoposide treated BJ cells; assay: Viability assay after siRNA transfection, senescent BJ cells; format: cell-based, human; conditions: Etoposide treated BJ cells with sip21; z-VAD-fmk four days with daily replenishment
Procedure: as §1, §2
ON-TARGETplus SMARTpool small-interfering RNAs targeting p21, Bcl-2, Bcl-w, Bcl-xL and the nontargeting pool siRNAs (control) were transfected into cells with the Dharmafect 1 reagent (all from Dharmacon, Lafayette, Colo., USA). siRNAs were washed away 24 hours post transfection and viability was analyzed four days thereafter as described above. […]

What does the source list for `CC1(C)CCC(CN2CCN(c3ccc(C(=O)NS(=O)(=O)c4ccc(NCC5CCOCC5)c([N+](=O)[O-])c4)c(Oc4cnc5[nH]ccc5c4)c3)CC2)=C(c2ccc(Cl)cc2)C1` [ABT-199]?
effect on viability of oncogenic H-ras^v12 induced senescent IMR-90 cells [1]: minor decrease in cell viability; effect on viability of senescent cells, Bcl-2 inhibition alone ([1]; IMR-90 or MEF senescent cells): almost no effect; additive effect of Bcl-2 inhibition on top of Bcl-w and Bcl-xL knockdown on senescent cell viability [2]: statistically significant, but minor additive effect

Which “death of senescent cells” value (senescent IMR-90 cells; ABT-737 alone, 24 hours, DNA damage or H-Ras^v12 induced senescent IMR-90) does the source give for `CN(C)CC[C@H](CSc1ccccc1)Nc1ccc(S(=O)(=O)NC(=O)c2ccc(N3CCN(Cc4ccccc4-c4ccc(Cl)cc4)CC3)cc2)cc1[N+](=O)[O-]` [ABT-737] here?
The value was “induced death”.

And the caspase-3 cleavage (cleaved caspase-3; senescent IMR-90 cells treated with ABT-737)?
The caspase-3 cleavage was “caspase-3 cleavage”.

What about the “reduction of viability of senescent cells” value ([3]; Etoposide or H-Ras^V12 induced senescent IMR-90 and MEF) of the same compound?
Its value is 50%.

What about the “effect on viability of control cells” value ([3]; growing, vehicle treated or vector transduced cells) of the same compound?
The value was “minor effect”.

For `COC(=O)C[C@H](NC(=O)[C@H](C)NC(=O)[C@@H](NC(=O)OCc1ccccc1)C(C)C)C(=O)CF` [z-VAD-fmk] (Cbz-Val-Ala-Asp(OMe)-CH2F), which “death of senescent cells following ABT-737 treatment, in presence of pan-caspase inhibitor” value (senescent IMR-90 cells; 100 μM z-VAD-fmk three-hour pre incubation, then ABT-737) is on record?
The value was “prevented death”.

What about the “caspase-3 cleavage after addition of z-VAD-fmk to ABT-737” value (cleaved caspase-3; senescent IMR-90 cells, ABT-737 plus z-VAD-fmk) of the same compound?
Its value is “abolished this cleavage”.

What about the “rescue of cell death caused by p21 knockdown” value [4] of the same compound?
The value was 20%.
